What all share (test): KINOMEscan competitive binding
One assay deals with T1, PLK4 (Homo sapiens, UniProt O00444).
T1 construct: purchased DiscoverX (KINOMEscan)
T1 sequence (O00444 1-970): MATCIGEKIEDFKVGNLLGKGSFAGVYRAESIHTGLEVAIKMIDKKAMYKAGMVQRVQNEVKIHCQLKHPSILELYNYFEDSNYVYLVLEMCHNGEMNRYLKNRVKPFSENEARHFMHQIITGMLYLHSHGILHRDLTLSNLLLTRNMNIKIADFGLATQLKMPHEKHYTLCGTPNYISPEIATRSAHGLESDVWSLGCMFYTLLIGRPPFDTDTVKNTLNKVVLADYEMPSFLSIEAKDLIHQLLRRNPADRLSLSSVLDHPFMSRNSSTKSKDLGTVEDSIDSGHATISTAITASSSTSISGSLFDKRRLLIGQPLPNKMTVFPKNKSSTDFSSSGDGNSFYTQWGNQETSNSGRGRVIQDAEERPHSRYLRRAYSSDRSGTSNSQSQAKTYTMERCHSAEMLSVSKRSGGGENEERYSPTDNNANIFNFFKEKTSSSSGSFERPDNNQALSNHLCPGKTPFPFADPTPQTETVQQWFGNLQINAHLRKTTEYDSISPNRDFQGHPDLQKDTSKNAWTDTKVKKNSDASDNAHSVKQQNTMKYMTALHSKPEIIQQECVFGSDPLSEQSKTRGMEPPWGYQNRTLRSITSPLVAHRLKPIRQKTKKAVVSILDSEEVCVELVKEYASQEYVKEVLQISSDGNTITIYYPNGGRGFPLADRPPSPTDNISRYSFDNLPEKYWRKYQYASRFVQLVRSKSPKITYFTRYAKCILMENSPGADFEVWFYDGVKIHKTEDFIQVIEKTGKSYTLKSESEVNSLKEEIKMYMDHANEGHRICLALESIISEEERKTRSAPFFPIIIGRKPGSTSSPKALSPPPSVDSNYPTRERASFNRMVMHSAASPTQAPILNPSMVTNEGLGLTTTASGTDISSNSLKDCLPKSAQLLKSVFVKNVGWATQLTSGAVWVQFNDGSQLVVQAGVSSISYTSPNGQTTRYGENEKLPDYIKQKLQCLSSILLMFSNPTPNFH
Conditions: n=1, read-out: Percent inhibition, PLK4.

In a further assay the target is T2, TYK2(Kin.Dom.2) (Homo sapiens, UniProt P29597).
T2 construct: TYK2(Kin.Dom.2); purchased DiscoverX (KINOMEscan)
T2 sequence (P29597 889-1187 limits assumed): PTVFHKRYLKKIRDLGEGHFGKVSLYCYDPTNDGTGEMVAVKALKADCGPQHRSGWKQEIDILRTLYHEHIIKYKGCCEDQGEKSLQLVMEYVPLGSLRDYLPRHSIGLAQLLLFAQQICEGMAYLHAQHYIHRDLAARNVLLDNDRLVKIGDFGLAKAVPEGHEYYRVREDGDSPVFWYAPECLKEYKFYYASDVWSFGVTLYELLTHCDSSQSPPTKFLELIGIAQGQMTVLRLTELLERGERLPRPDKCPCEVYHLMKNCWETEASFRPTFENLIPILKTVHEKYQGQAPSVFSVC
To be noted: n=1, read-out: Percent inhibition, TYK2(Kin.Dom.2).

The target of the next assay is T3, SNF1LK2 (Homo sapiens, UniProt Q9H0K1).
T3 construct: purchased DiscoverX (KINOMEscan)
Conditions: n=1, read-out: Percent inhibition, SNF1LK2.

The next assay has as its target T4, PRKCH (Homo sapiens, UniProt P24723).
T4 construct: purchased DiscoverX (KINOMEscan)
To be noted: n=1, read-out: Percent inhibition, PRKCH.

The target in another assay is T5, YSK1 (Homo sapiens, UniProt O00506).
T5 construct: purchased DiscoverX (KINOMEscan)
To be noted: n=1, read-out: Percent inhibition, YSK1.

In a further assay the target is T6, PTK2 (Homo sapiens, UniProt Q05397).
T6 construct: purchased DiscoverX (KINOMEscan)
To be noted: n=1, read-out: Percent inhibition, PTK2.

A further assay addresses T7, RIPK2 (Homo sapiens, UniProt O43353).
T7 construct: purchased DiscoverX (KINOMEscan)
To be noted: n=1, read-out: Percent inhibition, RIPK2.

Another assay deals with T8, PKAC-alpha (Homo sapiens, UniProt P17612).
T8 construct: purchased DiscoverX (KINOMEscan)
Conditions: n=1, read-out: Percent inhibition, PKAC-alpha.

In a further assay the target is T9, RPS6KA3(Kin.Dom.1) (Homo sapiens, UniProt P51812).
T9 construct: RPS6KA3(Kin.Dom.1); purchased DiscoverX (KINOMEscan)
To be noted: n=1, read-out: Percent inhibition, RPS6KA3(Kin.Dom.1).

A further assay deals with T10, PRKG1 (Homo sapiens, UniProt Q13976).
T10 construct: purchased DiscoverX (KINOMEscan)
T10 sequence (Q13976 1-671): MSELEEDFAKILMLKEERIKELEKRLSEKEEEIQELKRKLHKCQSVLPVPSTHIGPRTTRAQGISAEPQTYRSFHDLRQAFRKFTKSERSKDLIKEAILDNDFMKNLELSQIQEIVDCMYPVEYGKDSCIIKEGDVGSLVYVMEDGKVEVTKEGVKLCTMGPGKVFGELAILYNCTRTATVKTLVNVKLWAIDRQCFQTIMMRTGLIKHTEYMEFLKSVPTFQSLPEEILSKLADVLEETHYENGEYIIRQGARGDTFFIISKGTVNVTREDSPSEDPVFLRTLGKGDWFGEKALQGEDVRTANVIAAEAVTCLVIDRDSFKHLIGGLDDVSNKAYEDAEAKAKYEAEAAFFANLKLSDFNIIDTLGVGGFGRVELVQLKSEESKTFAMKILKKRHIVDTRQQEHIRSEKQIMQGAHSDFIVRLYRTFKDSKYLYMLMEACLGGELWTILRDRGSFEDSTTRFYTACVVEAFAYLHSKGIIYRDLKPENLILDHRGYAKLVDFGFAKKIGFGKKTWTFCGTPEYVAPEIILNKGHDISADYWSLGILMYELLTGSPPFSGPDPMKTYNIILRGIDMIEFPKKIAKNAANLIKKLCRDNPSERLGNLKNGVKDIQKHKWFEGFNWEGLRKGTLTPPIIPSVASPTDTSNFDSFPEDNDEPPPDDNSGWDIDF
To be noted: n=1, read-out: Percent inhibition, PRKG1.

For another assay, the target named is T11, YANK2 (Homo sapiens, UniProt Q9NY57).
T11 construct: purchased DiscoverX (KINOMEscan)
Conditions: n=1, read-out: Percent inhibition, YANK2.

The target of the next assay is T12, PTK6 (Homo sapiens, UniProt Q13882).
T12 construct: purchased DiscoverX (KINOMEscan)
To be noted: n=1, read-out: Percent inhibition, PTK6.

SMILES strings stand for the structures.

T6 sequence (Q05397 whole entry): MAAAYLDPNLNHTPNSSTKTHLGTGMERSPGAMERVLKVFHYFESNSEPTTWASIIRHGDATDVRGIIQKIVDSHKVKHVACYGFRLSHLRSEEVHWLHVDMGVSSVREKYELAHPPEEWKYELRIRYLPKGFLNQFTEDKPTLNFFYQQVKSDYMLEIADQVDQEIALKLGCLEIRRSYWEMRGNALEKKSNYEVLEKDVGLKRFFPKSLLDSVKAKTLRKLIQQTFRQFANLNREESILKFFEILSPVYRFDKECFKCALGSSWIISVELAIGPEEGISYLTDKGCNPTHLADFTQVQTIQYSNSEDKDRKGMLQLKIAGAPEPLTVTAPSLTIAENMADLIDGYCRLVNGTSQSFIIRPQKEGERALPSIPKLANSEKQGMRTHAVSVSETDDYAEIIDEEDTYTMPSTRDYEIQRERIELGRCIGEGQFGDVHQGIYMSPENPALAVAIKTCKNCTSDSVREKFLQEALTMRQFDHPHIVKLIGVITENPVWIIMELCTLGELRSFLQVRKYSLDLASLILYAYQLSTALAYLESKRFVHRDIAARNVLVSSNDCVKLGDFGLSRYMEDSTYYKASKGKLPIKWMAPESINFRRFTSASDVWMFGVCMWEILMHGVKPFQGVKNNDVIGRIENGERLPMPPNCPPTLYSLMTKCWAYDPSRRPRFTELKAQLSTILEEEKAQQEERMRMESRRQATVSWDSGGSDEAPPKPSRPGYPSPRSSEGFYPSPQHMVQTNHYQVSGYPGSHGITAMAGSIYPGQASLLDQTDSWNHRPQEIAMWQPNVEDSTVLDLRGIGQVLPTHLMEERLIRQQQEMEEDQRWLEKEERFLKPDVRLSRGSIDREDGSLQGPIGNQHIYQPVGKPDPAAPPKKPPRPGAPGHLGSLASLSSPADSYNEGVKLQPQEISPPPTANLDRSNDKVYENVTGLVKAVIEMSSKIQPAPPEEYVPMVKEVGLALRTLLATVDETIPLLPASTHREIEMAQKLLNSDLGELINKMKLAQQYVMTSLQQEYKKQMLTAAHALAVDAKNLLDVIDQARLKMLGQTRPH
T12 sequence (Q13882 whole entry): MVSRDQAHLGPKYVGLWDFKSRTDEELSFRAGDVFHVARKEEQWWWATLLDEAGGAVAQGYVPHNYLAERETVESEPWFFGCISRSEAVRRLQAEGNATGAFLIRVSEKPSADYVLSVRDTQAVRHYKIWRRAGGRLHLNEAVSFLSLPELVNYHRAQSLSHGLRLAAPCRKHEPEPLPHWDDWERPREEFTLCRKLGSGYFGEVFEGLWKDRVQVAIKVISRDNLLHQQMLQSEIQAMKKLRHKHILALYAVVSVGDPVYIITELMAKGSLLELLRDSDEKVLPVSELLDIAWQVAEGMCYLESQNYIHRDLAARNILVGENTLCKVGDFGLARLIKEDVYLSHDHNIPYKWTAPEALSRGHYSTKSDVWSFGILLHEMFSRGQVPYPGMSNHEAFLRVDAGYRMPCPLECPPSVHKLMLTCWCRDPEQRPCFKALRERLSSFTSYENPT
T5 sequence (O00506 whole entry): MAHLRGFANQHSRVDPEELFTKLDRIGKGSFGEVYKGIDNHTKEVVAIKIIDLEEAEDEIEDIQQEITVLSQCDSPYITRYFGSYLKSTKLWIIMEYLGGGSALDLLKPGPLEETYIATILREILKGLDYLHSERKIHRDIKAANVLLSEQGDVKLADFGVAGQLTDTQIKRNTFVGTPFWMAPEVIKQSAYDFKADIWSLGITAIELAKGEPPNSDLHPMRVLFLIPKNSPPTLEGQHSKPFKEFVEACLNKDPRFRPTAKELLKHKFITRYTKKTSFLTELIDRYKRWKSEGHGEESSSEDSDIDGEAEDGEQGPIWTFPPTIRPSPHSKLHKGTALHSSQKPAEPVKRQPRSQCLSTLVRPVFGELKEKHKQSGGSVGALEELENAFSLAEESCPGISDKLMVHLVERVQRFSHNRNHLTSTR
T9 sequence (P51812 1-397 limits assumed): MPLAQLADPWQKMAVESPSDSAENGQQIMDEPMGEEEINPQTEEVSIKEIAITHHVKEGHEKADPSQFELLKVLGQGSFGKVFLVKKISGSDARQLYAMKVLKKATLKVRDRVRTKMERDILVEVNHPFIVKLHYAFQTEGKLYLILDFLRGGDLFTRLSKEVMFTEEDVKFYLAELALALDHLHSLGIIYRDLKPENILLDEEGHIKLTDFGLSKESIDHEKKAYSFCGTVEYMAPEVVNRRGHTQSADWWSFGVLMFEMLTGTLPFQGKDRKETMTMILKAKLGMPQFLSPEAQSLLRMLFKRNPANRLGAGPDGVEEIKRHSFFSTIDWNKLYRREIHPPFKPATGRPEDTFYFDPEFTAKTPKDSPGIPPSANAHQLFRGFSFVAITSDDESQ
T7 sequence (O43353 whole entry): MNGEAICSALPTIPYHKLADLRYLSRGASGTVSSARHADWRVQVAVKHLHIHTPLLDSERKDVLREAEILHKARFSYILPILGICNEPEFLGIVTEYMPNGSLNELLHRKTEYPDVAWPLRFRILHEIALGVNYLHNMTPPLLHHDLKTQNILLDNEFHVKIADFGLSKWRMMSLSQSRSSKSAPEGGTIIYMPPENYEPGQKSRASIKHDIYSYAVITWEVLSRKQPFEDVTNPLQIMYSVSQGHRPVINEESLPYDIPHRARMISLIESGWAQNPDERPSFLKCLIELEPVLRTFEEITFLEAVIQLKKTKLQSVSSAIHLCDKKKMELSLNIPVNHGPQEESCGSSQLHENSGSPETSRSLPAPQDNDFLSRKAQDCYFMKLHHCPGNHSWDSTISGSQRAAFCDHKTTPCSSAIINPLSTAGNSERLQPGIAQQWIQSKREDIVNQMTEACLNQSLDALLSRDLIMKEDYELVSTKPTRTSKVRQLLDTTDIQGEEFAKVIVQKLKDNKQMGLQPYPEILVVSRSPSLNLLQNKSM
T11 sequence (Q9NY57 whole entry): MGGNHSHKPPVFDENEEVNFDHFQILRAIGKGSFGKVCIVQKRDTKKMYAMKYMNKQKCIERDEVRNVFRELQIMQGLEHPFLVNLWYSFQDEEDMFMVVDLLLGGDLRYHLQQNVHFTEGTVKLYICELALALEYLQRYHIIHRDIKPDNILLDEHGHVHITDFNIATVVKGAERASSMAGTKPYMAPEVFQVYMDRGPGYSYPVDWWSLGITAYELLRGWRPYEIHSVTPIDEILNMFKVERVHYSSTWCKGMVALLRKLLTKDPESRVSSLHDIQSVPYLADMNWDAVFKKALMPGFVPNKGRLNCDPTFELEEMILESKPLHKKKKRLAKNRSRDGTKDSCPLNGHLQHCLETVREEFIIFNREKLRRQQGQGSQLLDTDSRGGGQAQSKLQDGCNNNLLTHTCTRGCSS
T3 sequence (Q9H0K1 whole entry): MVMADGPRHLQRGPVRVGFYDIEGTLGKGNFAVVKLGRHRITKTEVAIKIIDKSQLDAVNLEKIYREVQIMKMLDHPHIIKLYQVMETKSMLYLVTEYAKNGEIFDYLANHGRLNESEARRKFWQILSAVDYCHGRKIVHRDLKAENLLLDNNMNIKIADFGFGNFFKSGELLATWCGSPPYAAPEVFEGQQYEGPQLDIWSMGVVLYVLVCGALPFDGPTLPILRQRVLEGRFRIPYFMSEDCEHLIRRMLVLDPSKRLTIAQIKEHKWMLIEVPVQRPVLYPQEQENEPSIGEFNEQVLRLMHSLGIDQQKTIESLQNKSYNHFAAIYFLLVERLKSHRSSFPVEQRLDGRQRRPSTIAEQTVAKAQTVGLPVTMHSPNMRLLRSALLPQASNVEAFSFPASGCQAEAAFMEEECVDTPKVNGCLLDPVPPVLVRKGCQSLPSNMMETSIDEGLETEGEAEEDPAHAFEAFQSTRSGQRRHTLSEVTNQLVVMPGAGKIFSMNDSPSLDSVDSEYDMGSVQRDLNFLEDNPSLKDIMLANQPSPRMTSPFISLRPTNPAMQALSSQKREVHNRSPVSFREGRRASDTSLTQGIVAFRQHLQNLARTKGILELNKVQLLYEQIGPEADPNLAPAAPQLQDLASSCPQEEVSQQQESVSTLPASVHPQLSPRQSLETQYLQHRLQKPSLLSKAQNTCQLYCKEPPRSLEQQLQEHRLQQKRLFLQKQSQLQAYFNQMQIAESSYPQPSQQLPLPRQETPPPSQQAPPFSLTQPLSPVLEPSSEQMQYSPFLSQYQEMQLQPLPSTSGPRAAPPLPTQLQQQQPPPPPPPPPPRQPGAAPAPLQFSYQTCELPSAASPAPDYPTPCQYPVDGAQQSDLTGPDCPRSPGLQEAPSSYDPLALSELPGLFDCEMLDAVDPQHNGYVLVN
T4 sequence (P24723 whole entry): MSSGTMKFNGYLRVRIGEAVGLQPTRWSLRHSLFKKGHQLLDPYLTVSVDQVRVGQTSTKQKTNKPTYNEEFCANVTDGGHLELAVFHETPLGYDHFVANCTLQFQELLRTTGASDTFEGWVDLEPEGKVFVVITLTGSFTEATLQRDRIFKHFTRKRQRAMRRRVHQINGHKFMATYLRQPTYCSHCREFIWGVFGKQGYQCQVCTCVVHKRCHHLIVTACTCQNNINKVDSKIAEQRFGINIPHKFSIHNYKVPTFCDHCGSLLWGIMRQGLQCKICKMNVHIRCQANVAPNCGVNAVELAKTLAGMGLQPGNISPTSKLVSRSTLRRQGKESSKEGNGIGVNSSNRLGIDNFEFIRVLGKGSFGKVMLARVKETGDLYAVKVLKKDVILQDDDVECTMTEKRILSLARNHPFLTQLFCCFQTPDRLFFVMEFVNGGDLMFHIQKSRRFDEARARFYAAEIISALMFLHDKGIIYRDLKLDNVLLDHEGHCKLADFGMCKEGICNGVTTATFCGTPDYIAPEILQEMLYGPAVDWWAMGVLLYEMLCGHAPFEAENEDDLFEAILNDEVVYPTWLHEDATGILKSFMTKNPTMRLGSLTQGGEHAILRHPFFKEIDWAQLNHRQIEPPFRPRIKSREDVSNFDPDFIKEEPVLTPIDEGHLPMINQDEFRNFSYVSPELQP

Turning to `CN1CCN(c2ccc(Nc3nccc(-c4cnn5ncccc45)n3)cc2C#N)CC1` [Compound 1], the inhibition at 10 µM on PLK4 was 99.7%; on TYK2(Kin.Dom.2), 88.2%; at SNF1LK2 it was 69.9%; on PRKCH it was 83.4%; on YSK1, 90.8%; on PTK2 it was 87.2%. The inhibition at 10 µM on RIPK2 stood at 90.6%; on PKAC-alpha, 0%; at RPS6KA3(Kin.Dom.1) it was 86%; at PRKG1, 0%; on YANK2, 0%; at PTK6 it was 77%.
As for `COc1ccc(Nc2nccc(-c3cnn4ncccc34)n2)cc1` [Compound 2], the inhibition at 10 µM on PLK4 was determined as 99%; at TYK2(Kin.Dom.2), 0%; at SNF1LK2, 0%; at PRKCH it was 0%; on YSK1, 0%; on PTK2 it was 99.3%. In addition, the inhibition at 10 µM on RIPK2, at PKAC-alpha, on RPS6KA3(Kin.Dom.1), on PRKG1, at YANK2 and on PTK6 was 0% in each case.
As for `Cc1ccc(O)cc1Nc1ccnc(Nc2cccc(C(N)=O)c2)n1` [Compound 3], the inhibition at 10 µM at PLK4 is 95.2%; at TYK2(Kin.Dom.2), 94%; on SNF1LK2, 96.7%; at PRKCH, 0%; at YSK1 it was 0%; on PTK2, 0%. The inhibition at 10 µM at RIPK2 came out at 100%; at PKAC-alpha, 0%; on RPS6KA3(Kin.Dom.1), 0%; on PRKG1, 0%; at YANK2, 0%; at PTK6 it was 100%.
Turning to `Cc1ccc(O)cc1N(C)c1ccnc(Nc2cccc(S(N)(=O)=O)c2)n1` [Compound 4], the inhibition at 10 µM is 99.4% on PLK4; 95.6% at TYK2(Kin.Dom.2); 95.1% on SNF1LK2; 0% on PRKCH; 0% at YSK1; 93.4% at PTK2. Besides, the inhibition at 10 µM is 100% on RIPK2; 68.9% on PKAC-alpha; 0% at RPS6KA3(Kin.Dom.1); 0% on PRKG1; 94.5% at YANK2; 100% on PTK6.
Regarding `Fc1cccc(COc2ccc(Nc3ncnc4c3CN(CCN3CCOCC3)CC4)cc2Cl)c1` [Compound 6], the inhibition at 10 µM on PLK4, at TYK2(Kin.Dom.2), on SNF1LK2, at PRKCH, at YSK1 and at PTK2 was 0% each time. The inhibition at 10 µM at RIPK2, on PKAC-alpha, on RPS6KA3(Kin.Dom.1), at PRKG1, on YANK2 and on PTK6 was 0% each time.
Consider `COc1cc(Nc2nccc(-c3sc(N)nc3-c3cccc(NC(=O)c4c(F)cccc4F)c3)n2)cc(OC)c1OC` [Compound 7], for which the inhibition at 10 µM was 99.8% at PLK4; 97.2% on TYK2(Kin.Dom.2); 99.4% on SNF1LK2; 87.7% at PRKCH; 96.3% on YSK1; 97% on PTK2. Moreover, the inhibition at 10 µM turned out to be 100% at RIPK2; 0% at PKAC-alpha; 99.8% at RPS6KA3(Kin.Dom.1); 0% at PRKG1; 93% at YANK2; 100% at PTK6.
For the compound `C[C@@H](Oc1cc(-c2cnc3ccccn23)sc1C(N)=O)c1ccccc1Cl` [Compound 8], the inhibition at 10 µM at PLK4 came out at 76.4%; on TYK2(Kin.Dom.2), 0%; at SNF1LK2, 0%; at PRKCH it was 0%; on YSK1, 0%; on PTK2, 0%. Also, the inhibition at 10 µM on RIPK2, at PKAC-alpha, at RPS6KA3(Kin.Dom.1), at PRKG1, at YANK2 and at PTK6 was 0% in each case.
Take `c1ccc(COc2cccc(-c3ccnc4[nH]ccc34)c2)cc1` [Compound 9]: the inhibition at 10 µM turned out to be 0% on PLK4; 0% on TYK2(Kin.Dom.2); 0% at SNF1LK2; 87.9% at PRKCH; 0% on YSK1; 0% on PTK2. Moreover, the inhibition at 10 µM on RIPK2, at PKAC-alpha, at RPS6KA3(Kin.Dom.1), at PRKG1, at YANK2 and at PTK6 was 0% in each case.
Consider `Clc1ccc(Nc2ncc(-c3ccccc3)s2)cc1` [Compound 10], for which the inhibition at 10 µM on PLK4, on TYK2(Kin.Dom.2), at SNF1LK2, at PRKCH, at YSK1 and on PTK2 was 0% in each case. In addition, the inhibition at 10 µM on RIPK2, on PKAC-alpha, at RPS6KA3(Kin.Dom.1), at PRKG1, on YANK2 and on PTK6 was 0% each time.

The term inhibition denotes the change of the read-out against control, counted positive when it falls.

The values are drawn from publication PMC9927415, “Tyrosine Kinase Inhibitors Display Potent Activity against Cryptosporidium parvum” (Microbiology Spectrum, 2022).
